# According to US6586441B2, “Adenosine receptor ligands and their use in the treatment of disease” (Hoffman-La Roche Inc., priority 2000, dated 2003):
# Read-outs that look alike come from different tables or passages of the source.
# What was measured:
# [1] = biological target: T1, human adenosine A2A receptor (Homo sapiens, UniProt P29274); assay: Human adenosine A2A receptor [3H]-SCH-58261 binding assay
# T1 construct: expressed in transfected cells; host or cells: CHO cells, semliki forest virus expression system; membrane preparation
# T1 sequence (P29274 whole entry): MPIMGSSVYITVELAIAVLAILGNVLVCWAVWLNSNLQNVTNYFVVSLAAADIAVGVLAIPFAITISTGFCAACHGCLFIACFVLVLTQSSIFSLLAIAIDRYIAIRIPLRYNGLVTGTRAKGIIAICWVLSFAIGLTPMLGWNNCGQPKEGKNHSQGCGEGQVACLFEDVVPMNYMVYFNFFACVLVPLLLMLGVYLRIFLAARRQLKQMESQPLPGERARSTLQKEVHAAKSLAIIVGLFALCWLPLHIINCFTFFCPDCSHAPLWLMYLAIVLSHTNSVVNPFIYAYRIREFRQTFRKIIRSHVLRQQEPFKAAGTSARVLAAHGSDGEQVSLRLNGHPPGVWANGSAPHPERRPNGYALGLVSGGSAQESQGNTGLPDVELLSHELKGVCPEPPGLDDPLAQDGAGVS
# Outline: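 Membranes from CHO cells expressing the human receptor (Semliki Forest virus system) were incubated with 1 nM [3H]-SCH-58261 and adenosine deaminase. The buffer was Tris pH 7.4 with NaCl, KCl, CaCl2 and MgCl2, and the read-out was SPA after 1 h at room temperature. Non-specific binding was defined with XAC; compounds were run at 10 concentrations (10 μM–0.3 nM), and IC50 values were converted to Ki by Cheng-Prusoff.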
# [2] = biological target: T2, human adenosine A1 receptor (Homo sapiens, UniProt P30542); assay: Human adenosine A1 receptor [3H]-DPCPX binding assay; conditions: membranes of CHO cells, read-out: hA1 (pKi) (converted)
# T2 construct: expressed in transfected cells; host or cells: CHO cells, semliki forest virus expression system; membrane preparation
# T2 sequence (P30542 1-326): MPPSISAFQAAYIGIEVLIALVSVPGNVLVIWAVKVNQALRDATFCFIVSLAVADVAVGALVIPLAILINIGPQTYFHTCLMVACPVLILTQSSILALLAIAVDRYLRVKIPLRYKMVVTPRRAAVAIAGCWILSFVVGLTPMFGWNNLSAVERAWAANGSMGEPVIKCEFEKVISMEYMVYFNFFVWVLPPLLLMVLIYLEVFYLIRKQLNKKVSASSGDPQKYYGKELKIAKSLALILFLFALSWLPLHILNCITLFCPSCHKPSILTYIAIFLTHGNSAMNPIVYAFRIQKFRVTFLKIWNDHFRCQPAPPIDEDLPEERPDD
# Protocol: The gene encoding human adenosine A1 receptor was recombinantly introduced and expressed in chinese hamster ovary (CHO) cells using the semliki forest virus expression system. Cells were harvested, washed twice by centrifugation, homogenised and again washed by centrifugation. The final washed membrane pellet was suspended in a Tris (50 mM) buffer containing 120 mM NaCl, 5 mM KCl, 2 mM CaCl2 and 10 mM MgCl2 (pH 7.4) (buffer A). The [^3H]-DPCPX (([propyl-3H]8-cyclopentyl-1,3-dipropyxanthine); 0.6 nM) binding assay was carried out in 96-well plates in the presence of 2.5 μg of membrane protein, 0.5 mg of Ysi-poly-1-lysine SPA beads and 0. I U adenosine deaminase in a final volume of 200 μl of buffer A. Non-specific binding was defined using xanthine amine congener (XAC; 2 μM). Compounds were tested at 10 concentrations from 10 μM-0.3 nM. All assays were conducted in duplicate and repeated at least two times. Assay plates were incubated for 1 hour at room temperature before centrifugation and then bound ligand determined using a Packard Topcount scintillation counter. IC50 values were calculated using a non-linear curve fitting program and Ki values calculated using the Cheng-Prussoff equation.
# [3] = biological target: T3, human adenosine A3 receptor (Homo sapiens, UniProt P0DMS8); assay: Human adenosine A3 receptor [125I]-AB-MECA binding assay; conditions: membranes of CHO cells, read-out: hA3 (pKi) (converted)
# T3 construct: expressed in transfected cells; host or cells: CHO cells, semliki forest virus expression system; membrane preparation
# T3 sequence (P0DMS8 1-318): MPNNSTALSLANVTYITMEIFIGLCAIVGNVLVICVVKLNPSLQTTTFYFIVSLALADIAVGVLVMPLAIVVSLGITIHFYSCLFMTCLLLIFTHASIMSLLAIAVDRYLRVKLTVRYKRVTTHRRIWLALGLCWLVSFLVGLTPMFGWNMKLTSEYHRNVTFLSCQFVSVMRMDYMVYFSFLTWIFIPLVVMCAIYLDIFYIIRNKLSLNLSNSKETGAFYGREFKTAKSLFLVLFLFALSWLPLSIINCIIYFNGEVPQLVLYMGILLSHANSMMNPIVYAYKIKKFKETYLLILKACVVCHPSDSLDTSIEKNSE
# Protocol: The gene encoding human adenosine A3 receptor was recombinantly introduced and expressed in chinese hamster ovary (CHO) cells using the semliki forest virus expression system. Cells were harvested, washed twice by centrifugation, homogenised and again washed by centrifugation. The final washed membrane pellet was suspended in a Tris (50 mM) buffer containing 120 mM NaCl, 5 mM KCl, 2 mM CaCl2 and 10 mM MgCl2 (pH 7.4) (buffer A). The [^125I]-AB-MECA ([N(6)-(4-amino-3-iodobenzyl)-5′-N-methylcarbamoyl-adenosine]; 0.05 nM) binding assay was carried out in 96-well plates in the presence of 20 μg of membrane protein and 0.1 U adenosine deaminase in a final volume of 200 μl of buffer A. Non-specific binding was defined using xanthine amine congener (XAC; 2 μM). Compounds were tested at 10 concentrations from 10 μM-0.3 nM. All assays were conducted in duplicate and repeated at least two times. Assay plates were incubated for 1 hour at room temperature before filtration through Whatman Unifilter GF/C 96-well filter plates (preincubated with 0.3% polyethyleneimine). Filters were washed 3 times with 0.3 ml of cold (4° C.) Tris (50 mM)-Nacl (120 mM) buffer (pH 7.4). Microscint 40 scintillation fluid (50 μl) was added to each well and the wells sealed. After gentle shaking for 20 min, plates were counted on a Packard Topcount scintillation counter. IC50 values were calculated using a non-linear curve fitting program and Ki values calculated using the Cheng-Prussoff equation.
# [4] = human A2A receptor, selectivity table, read-out: hA2 (pKi) (converted)
# [5] = human A2A receptor, selectivity table
# [6] = human A2a receptor, membranes of CHO cells, [3H]-SCH-58261, read-out: pKi (affinity to the human A2a receptor) (converted)
Compound,"Ki [1, 4] [µM]",Ki [2] [µM],Ki [3] [µM],"hA2 (pKi) [1, 5]","Ki [1, 6] [µM]"
"COc1cc(-c2nc(N)nc(SC)c2C#N)cc(OC)c1OC [Example 15, 2-Amino-4-methylsulfanyl-6-(3,4,5-trimethoxy-phenyl)-pyrimidine-5-carbonitrile]",0.0575,1.32,1.95,–,–
"N#Cc1cnc(N)nc1-c1cccs1 [Example 26, 2-Amino-4-thiophen-2-yl-2-pyrimidine-5-carbonitrile]",0.0363,2.51,1.26,–,–
"N#Cc1c(NCc2ccccc2)nc(N)nc1-c1ccco1 [Example 42, 2-Amino-4-benzylamino-6-furan-2-yl-pyrimidine-5-carbonitrile]",–,1.66,8.91,8.33,0.00468
"N#Cc1c(NCCNc2ccccc2)nc(N)nc1-c1ccco1 [Example 132, 2-Amino-4-furan-2-yl-6-(2-phenylamino-ethylamino)-pyrimidine-5-carbonitrile]",–,0.692,6.03,8.33,0.00468
"N#Cc1c(/C=C/c2ccccc2)nc(N)nc1-c1ccco1 [Example 149, (E)-2-Amino-4-furan-2-yl-6-styryl-pyrimidine-5-carbonitrile]",–,0.389,2.04,8.34,0.00457
"Cc1ccccc1CNc1nc(N)nc(-c2ccco2)c1C#N [Example 288, 2-Amino-4-furan-2-yl-6-(2-methyl-benzylamino)-pyrimidine-5-carbonitrile]",–,0.372,0.151,8.59,0.00257
"N#Cc1c(OCc2ccc3ccccc3c2)nc(N)nc1-c1ccco1 [Example 303, 2-Amino-4-furan-2-yl-6-(naphthalen-2-ylmethoxy)-pyrimidine-5-carbonitrile]",–,0.316,8.71,8.60,0.00251
"N#Cc1c(NCCNc2ccc(Cl)cc2)nc(N)nc1-c1ccco1 [Example 318, 2-Amino-4-[2-(4-chloro-phenylamino)-ethylamino]-6-furan-2-yl-pyrimidine-5-carbonitrile]",–,0.851,7.24,8.27,0.00537
"N#Cc1c(NCc2ccc(Br)cc2)nc(N)nc1-c1ccco1 [Example 325, 2-Amino-4-(4-bromo-benzylamino)-6-furan-2-yl-pyrimidine-5-carbonitrile]",–,2.88,3.98,8.26,0.0055
"CCc1ccc(CNc2nc(N)nc(-c3ccco3)c2C#N)cc1 [Example 375, 2-Amino-4-(4-ethyl-benzylamino)-6-furan-2-yl-pyrimidine-5-carbonitrile]",–,0.646,2.14,8.40,0.00398
